Experimental data reported in PMC11503492, “Activity-Based DNA-Encoded Library Screening for Selective Inhibitors of Eukaryotic Translation” (ACS Central Science, 2024).
Entries after “also recorded” stand apart in the source; their conditions may differ.

How the values were obtained:
[1] = test system: PCSK9[1:33]-GFP in vitro transcription; assay: PCSK9[1:33]-GFP T7 in vitro transcription reaction, agarose gel; format: biochemical; conditions: PCSK9[1:33]-GFP T7 transcription, 1.5% agarose gel
Procedure: Figure S10. Activity of compounds 8 and 9 on transcription. (A) Screening hits 8 and 9 were analyzed in dose-response IVTT activity assays of PCSK9[1:33]-GFP initiated with DNA (black) and RNA (gray) template. (B) Products of PCSK9[1:33]-GFP T7 transcription reactions incubated with DMSO, screening hits 8 and 9, or PF846 were visualized on a 1.5% agarose gel
(1 picture or pasted object on this page, not shown here)

[2] = test system: MST1[1:39]-GFP translation; assay: WG IVTT activity assay, MST1[1:39]-GFP template; format: biochemical, wheat germ; conditions: WG IVTT dose-response
Procedure: page 21: 421 region sequences were matched to an alpha numeric DNA region identifier (11[…], respectively), while allowing a 1-bp mutation per encoding region. 423 No insertions or deletions were tolerated. […] A sum of UMI counts for all remaining unique combinations 429 of encoding region identifiers was then determined using a UMI aggregation algorithm; 430 1 bp mutations were considered the same UMI. Encoding region identifiers were then 431 converted to library BB identifiers per the library design with an associated UMI count. 432 Any encoding region/ bead-specific barcode combinations with a UMI count below a 433 manually determined threshold (10) were discarded. The remaining ”valid beads” were 434 aggregated by cycle 1/2 BB combinations and the number of unique encoding regions 435 observed for each BB combination defined the k-class for that BB combination.S8 436 Microplate IVTT Assays 437 Wheat germ lysate IVTT plate assays were prepared as 5 μL reactions. […] Template (1 μL) was added and reaction 440 progress was immediately monitored (λex = 480 nm, λem = 530 nm, 27 °C, 2 h). […] activity was calculated using the slope of fluorescence increase over time (at 15-30 442 min post reaction initiation) for compound samples relative to that of the DMSO vehicle 443 control. […]

[3] = test system: RPL27[1:32]-GFP translation; assay: WG IVTT activity assay, RPL27[1:32]-GFP template; format: biochemical, wheat germ
From the text: A commercially available wheat germ lysate (WG) IVTT system was employed to assay translation inhibition. Translation activity was detected via a GFP reporter, and the assay was miniaturized to picoliter-scale microfluidic droplets (Figure 1A,B). […] PCSK9 and RPL27 were truncated to the first 33 and 32 amino acids, respectively (PCSK9[1:33] and RPL27[1:32]). The sequences contain distinct PF846 stall sites and were both fused to a GFP reporter. The GFP reporter and a frameshift mutant of PCSK9[1:33] (PCSK9-FS[1:33]), which mutates the nascent chain sequence while maintaining a nearly identical mRNA sequence, were included as negative controls.[13] […] The WG IVTT assay was miniaturized using a previously described microfluidic circuit modified for longer incubation times (Figure S1)[27] using PF846 as a positive control compound, and assay statistical quality was calculated (Z′=0.7) (Figure 1E). […] Assay statistical quality using PC-HygB positive control beads was similarly calculated (Z′ = 0.75, Figure 1H). […]
429 of encoding region identifiers was then determined using a UMI aggregation algorithm; […]
433 manually determined threshold (10) were discarded. […]
440 progress was immediately monitored (λex = 480 nm, λem = 530 nm, 27 °C, 2 h). […]
441 tive activity was calculated using the slope of fluorescence increase over time (at 15–30 […]
Figure S11. […] Compound 8 (black) and PF846 (gray) were analyzed […]

SMILES | effect on in vitro transcription product (in words) [1] | activity on MST1[1:39]-GFP translation (in words) [2] | activity on RPL27[1:32]-GFP translation (in words) [3]
Cc1cccc2ccnc(N(C(=O)C3CCN(C(=O)c4cccc5c(C#N)c[nH]c45)CC3)[C@@H]3CCCNC3)c12 [Compound 9] | no visible transcript product; also recorded: completely eliminates RNA yield; also recorded: nonselectively inhibits transcription |  | 
Cc1cccc2ccnc(N(C(=O)[C@H]3CCCN(C(=O)c4cccc5c(C#N)c[nH]c45)C3)[C@@H]3CCCNC3)c12 [Compound 8] |  | inactive | most active
